# Experimental data taken from article PMC4770715, “LIM kinase inhibitors disrupt mitotic microtubule organization and impair tumor cell proliferation” (Oncotarget, 2015).
# Experiments:
# Assay in all cases: biochemical
# Parameters in all cases: KINOMEscan active-site competition binding, percent of control (100 = no competition)
# Settings in all cases: competition binding, percent control
# SRC = SRC (Homo sapiens, UniProt P12931)
# SNRK = SNRK (Homo sapiens, UniProt Q9NRH2)
# p38-beta = target: T1, p38-beta (Homo sapiens, UniProt Q15759)
# T1 construct: gene MAPK11
# FGFR3 = FGFR3 (Homo sapiens, UniProt P22607)
# ASK2 = target: T2, ASK2 (Homo sapiens, UniProt O95382)
# T2 construct: gene MAP3K6
# NDR2 = target: T3, NDR2 (Homo sapiens, UniProt Q9Y2H1)
# T3 construct: gene STK38L
# T3 sequence (Q9Y2H1 whole entry): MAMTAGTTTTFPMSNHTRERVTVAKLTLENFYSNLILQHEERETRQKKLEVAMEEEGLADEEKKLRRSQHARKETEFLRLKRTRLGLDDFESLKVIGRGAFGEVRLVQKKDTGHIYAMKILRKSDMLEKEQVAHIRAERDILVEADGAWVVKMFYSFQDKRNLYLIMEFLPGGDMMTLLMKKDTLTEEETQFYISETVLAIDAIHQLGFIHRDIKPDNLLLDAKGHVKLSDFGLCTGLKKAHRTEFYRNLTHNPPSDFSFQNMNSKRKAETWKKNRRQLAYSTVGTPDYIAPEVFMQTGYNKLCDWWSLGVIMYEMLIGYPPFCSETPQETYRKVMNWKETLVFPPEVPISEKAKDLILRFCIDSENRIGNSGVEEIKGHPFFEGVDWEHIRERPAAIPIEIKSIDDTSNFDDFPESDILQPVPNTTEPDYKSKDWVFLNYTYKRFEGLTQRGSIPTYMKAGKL
# GRK1 = GRK1 (Homo sapiens, UniProt Q15835)
# KIT(D816V) = KIT(D816V) (Homo sapiens, UniProt P10721, D816V)
# PIK3CA(Q546K) = PIK3CA(Q546K) (Homo sapiens, UniProt P42336, Q546K)
# Chain of PIK3CA(Q546K) (P42336 whole entry Q546K): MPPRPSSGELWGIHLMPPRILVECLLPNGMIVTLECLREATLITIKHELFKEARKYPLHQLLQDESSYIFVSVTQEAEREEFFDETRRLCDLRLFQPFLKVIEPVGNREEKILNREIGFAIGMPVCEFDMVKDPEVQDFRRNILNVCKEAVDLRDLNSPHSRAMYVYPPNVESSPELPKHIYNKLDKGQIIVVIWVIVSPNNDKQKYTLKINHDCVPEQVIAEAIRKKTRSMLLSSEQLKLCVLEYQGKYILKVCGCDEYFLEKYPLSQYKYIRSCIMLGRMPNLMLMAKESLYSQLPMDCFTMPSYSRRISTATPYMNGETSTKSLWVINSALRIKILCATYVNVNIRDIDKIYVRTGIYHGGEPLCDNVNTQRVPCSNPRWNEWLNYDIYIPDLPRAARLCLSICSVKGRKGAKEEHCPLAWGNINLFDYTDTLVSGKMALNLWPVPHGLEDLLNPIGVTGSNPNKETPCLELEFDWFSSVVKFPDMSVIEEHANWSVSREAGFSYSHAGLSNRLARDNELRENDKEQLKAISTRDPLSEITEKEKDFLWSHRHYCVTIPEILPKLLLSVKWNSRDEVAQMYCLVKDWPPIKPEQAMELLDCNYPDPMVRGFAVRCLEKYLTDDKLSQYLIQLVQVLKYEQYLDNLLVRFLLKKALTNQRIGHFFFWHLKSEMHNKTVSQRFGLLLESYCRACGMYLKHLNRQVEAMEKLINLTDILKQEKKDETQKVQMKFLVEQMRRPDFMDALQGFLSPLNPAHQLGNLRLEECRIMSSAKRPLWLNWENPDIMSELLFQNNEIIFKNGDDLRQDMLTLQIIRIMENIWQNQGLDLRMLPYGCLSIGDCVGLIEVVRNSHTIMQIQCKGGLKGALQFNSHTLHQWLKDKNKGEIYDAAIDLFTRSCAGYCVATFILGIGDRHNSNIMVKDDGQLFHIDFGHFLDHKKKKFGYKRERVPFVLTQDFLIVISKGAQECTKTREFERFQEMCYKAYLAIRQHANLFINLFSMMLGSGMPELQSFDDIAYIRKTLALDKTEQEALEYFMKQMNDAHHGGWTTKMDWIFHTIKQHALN
# YES = target: T4, YES (Homo sapiens, UniProt P07947)
# T4 construct: gene YES1
# ZAP70 = ZAP70 (Homo sapiens, UniProt P43403)
# FGR = FGR (Homo sapiens, UniProt P09769)
# DCAMKL3 = target: T5, DCAMKL3 (Homo sapiens, UniProt Q9C098)
# T5 construct: gene DCLK3
# T5 sequence (Q9C098 whole entry): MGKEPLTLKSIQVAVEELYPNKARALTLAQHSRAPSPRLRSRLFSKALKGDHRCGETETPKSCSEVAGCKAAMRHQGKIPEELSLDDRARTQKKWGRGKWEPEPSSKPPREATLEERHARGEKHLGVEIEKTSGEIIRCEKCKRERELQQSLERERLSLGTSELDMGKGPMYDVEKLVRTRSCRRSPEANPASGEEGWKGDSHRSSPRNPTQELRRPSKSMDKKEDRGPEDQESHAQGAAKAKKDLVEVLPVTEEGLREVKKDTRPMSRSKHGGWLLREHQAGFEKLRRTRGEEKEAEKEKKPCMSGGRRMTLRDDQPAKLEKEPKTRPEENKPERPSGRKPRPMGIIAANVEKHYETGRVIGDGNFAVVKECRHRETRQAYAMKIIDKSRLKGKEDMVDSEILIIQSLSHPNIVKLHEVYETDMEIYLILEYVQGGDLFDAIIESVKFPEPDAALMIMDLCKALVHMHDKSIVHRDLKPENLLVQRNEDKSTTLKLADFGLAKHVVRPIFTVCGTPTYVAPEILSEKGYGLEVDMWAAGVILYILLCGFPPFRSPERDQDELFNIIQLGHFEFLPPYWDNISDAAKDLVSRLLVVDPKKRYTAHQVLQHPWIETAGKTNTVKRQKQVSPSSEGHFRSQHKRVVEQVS
# GSK3A = GSK3A (Homo sapiens, UniProt P49840)
# Chain of GSK3A (P49840 whole entry): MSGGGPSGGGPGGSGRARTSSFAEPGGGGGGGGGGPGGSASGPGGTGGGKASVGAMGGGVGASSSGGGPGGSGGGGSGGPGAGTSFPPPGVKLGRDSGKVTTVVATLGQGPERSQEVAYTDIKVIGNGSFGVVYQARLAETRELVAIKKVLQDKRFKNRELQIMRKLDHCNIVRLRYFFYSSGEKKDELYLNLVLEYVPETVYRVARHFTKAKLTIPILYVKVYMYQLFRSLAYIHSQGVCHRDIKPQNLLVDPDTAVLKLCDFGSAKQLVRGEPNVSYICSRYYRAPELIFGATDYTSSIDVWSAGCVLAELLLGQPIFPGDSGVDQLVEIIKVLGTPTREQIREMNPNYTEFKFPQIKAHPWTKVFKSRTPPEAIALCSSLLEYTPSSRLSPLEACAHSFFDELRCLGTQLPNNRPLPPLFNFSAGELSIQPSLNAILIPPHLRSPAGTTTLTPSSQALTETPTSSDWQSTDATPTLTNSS
# [1] = target: T6, RSK3(Kin.Dom.2-C-terminal) (Homo sapiens, UniProt Q15349)
# T6 construct: gene RPS6KA2; Kin.Dom.2-C-terminal
# KIT(A829P) = KIT(A829P) (Homo sapiens, UniProt P10721, A829P)
# CLK3 = CLK3 (Homo sapiens, UniProt P49761)
# PIK3CA = PIK3CA (Homo sapiens, UniProt P42336)
# Chain of PIK3CA (P42336 whole entry): as the sequence (P42336 whole entry Q546K) above, with K546Q counted along it
# YANK2 = target: T7, YANK2 (Homo sapiens, UniProt Q9NY57)
# T7 construct: gene STK32B
# T7 sequence (Q9NY57 whole entry): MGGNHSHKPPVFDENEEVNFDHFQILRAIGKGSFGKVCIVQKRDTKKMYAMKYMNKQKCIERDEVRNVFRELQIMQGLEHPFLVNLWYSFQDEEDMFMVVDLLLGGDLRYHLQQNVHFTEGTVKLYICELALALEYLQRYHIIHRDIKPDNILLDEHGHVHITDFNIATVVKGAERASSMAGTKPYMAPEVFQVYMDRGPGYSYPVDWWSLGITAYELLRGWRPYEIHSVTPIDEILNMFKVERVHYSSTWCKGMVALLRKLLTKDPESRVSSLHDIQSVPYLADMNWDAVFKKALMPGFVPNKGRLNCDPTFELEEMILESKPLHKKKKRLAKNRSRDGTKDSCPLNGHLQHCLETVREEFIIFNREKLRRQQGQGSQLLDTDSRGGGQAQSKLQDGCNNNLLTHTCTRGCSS
# MARK4 = MARK4 (Homo sapiens, UniProt Q96L34)
# Chain of MARK4 (Q96L34 whole entry): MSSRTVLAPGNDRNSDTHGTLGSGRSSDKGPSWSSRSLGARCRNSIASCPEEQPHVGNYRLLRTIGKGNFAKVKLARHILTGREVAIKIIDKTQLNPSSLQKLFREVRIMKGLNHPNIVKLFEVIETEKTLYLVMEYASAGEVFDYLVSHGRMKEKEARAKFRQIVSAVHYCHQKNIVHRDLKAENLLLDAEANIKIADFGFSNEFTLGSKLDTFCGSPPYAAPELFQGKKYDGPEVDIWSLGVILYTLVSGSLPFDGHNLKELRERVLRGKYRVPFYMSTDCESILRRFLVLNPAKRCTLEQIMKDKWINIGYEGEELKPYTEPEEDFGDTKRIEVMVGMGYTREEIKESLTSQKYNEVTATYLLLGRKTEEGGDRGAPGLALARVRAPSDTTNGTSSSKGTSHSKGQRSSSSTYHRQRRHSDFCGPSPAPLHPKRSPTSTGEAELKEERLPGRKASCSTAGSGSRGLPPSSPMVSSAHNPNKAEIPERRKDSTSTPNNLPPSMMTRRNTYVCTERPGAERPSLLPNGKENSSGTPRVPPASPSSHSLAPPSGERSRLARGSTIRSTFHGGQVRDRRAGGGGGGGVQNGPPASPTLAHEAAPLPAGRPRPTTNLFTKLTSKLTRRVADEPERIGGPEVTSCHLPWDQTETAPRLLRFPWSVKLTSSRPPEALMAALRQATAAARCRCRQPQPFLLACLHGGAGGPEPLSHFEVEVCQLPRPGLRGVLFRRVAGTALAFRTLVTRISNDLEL
# MAPKAPK2 = MAPKAPK2 (Homo sapiens, UniProt P49137)
# Chain of MAPKAPK2 (P49137 whole entry): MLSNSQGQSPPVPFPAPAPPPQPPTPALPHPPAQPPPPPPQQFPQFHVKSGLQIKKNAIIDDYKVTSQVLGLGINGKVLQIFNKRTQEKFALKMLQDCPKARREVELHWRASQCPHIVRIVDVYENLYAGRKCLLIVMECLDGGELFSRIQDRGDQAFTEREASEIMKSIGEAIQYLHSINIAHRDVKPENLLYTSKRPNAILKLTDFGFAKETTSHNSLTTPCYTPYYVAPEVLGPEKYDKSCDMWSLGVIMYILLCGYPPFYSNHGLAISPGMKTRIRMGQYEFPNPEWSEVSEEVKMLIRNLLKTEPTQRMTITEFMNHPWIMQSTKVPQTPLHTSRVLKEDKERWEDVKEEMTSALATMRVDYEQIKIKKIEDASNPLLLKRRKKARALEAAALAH
# ACVR1B = ACVR1B (Homo sapiens, UniProt P36896)
# BMX = BMX (Homo sapiens, UniProt P51813)
# Chain of SNRK (Q9NRH2 whole entry): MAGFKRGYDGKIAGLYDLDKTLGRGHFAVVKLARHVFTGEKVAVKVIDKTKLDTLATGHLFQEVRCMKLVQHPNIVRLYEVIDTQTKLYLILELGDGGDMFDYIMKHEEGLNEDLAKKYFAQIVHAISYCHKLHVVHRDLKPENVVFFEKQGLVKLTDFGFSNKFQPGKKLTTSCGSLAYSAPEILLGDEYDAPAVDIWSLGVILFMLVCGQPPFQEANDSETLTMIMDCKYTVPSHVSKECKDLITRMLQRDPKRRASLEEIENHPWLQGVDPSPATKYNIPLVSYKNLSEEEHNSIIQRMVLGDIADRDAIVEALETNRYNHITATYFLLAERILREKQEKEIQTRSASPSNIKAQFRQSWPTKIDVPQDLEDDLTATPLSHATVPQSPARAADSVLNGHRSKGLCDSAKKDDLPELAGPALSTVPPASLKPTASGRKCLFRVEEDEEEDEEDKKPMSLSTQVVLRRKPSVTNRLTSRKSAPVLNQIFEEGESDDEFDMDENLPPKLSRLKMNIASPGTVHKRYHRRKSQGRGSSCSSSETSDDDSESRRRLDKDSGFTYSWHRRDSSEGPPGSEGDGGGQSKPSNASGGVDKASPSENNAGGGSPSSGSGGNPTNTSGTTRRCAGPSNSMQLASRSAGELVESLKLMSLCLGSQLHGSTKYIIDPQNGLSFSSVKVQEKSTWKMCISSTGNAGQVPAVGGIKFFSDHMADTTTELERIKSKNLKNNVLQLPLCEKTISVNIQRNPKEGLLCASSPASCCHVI
SMILES,remaining binding at 10 µM (SRC),remaining binding at 10 µM (SNRK),remaining binding at 10 µM (p38-beta),remaining binding at 10 µM (FGFR3),remaining binding at 10 µM (ASK2),remaining binding at 10 µM (NDR2),remaining binding at 10 µM (GRK1),remaining binding at 10 µM (KIT(D816V)),remaining binding at 10 µM (PIK3CA(Q546K)),remaining binding at 10 µM (YES),remaining binding at 10 µM (ZAP70),remaining binding at 10 µM (FGR),remaining binding at 10 µM (DCAMKL3),remaining binding at 10 µM (GSK3A),remaining binding at 10 µM [1],remaining binding at 10 µM (KIT(A829P)),remaining binding at 10 µM (CLK3),remaining binding at 10 µM (PIK3CA),remaining binding at 10 µM (YANK2),remaining binding at 10 µM (MARK4),other results
"COc1ccc(-c2cnccc2-c2cnc(NC(=O)C(C)C)s2)c(C(F)(F)F)c1 [CRT0105446, N-{5-[3-(4-Methoxy-2-trifluoromethyl-phenyl)-pyridin-4-yl]-hiazol-2-yl}-isobutyramide]",100%,81%,100%,96%,100%,82%,70%,83%,100%,99%,86%,93%,88%,56%,93%,100%,49%,100%,100%,57%,remaining binding at 10 µM (MAPKAPK2): 100%; remaining binding at 10 µM (ACVR1B): 82%; remaining binding at 10 µM (BMX): 100%
"Cc1ccc(-c2cnccc2-c2cnc(Nc3ccc(O)cc3)s2)c(Cl)c1 [CRT0105950, 4-{5-[3-(2-Chloro-4-methyl-phenyl)-pyridin-4-yl]-thiazol-2-ylamino}-phenol]",82%,100%,93%,4.8%,100%,80%,59%,2.8%,100%,66%,99%,32%,7.4%,32%,88%,35%,22%,100%,100%,4%,remaining binding at 10 µM (MAPKAPK2): 100%; remaining binding at 10 µM (ACVR1B): 76%; remaining binding at 10 µM (BMX): 81%
